Earlier results on 12 compounds are cited in PMC10458307, “New Scaffolds of Proteasome Inhibitors: Boosting Anticancer Potential by Exploiting the Synergy of In Silico and In Vitro Methodologies” (Pharmaceuticals, 2023).

The IC50 is the concentration at which inhibition is half-maximal.

The structures appear in SMILES notation. Peptide text beside a SMILES is read from it. * marks the point of attachment. Cbz = O=C(OCc1ccccc1)*

One data set deals with proteasome CT-L active site. As to conditions: literature values of known proteasome inhibitors; reference per compound; cited from earlier work.
With `O=c1cc(-c2ccc(O)cc2)oc2cc(O)cc(O)c12` [Apigenin], the half-inhibitory concentration (IC50) is 1800 nM.

On to `Oc1cc(O)c2cc(O)c(-c3ccc(O)c(O)c3)[o+]c2c1` [Cyanidin], for which the IC50 was 18400 nM.

Regarding `Oc1cc(O)c2cc(O)c(-c3cc(O)c(O)c(O)c3)[o+]c2c1` [Delphinidin], the IC50 was 32400 nM.

In the case of `CC[C@H](C)[C@H](NC(=O)[C@H]([C@@H](C)CC)N(C)C(C)=O)C(=O)N[C@H](C(=O)N[C@@H](CC(C)C)C(=O)[C@@]1(C)CO1)[C@@H](C)O` [Epoxomicin], the half-maximal inhibitory concentration (IC50) was 47 nM.

Regarding `CCCCCCCCC[C@@H](O)CC(=O)N[C@@H](CC(N)=O)C(=O)N[C@@H](CCC(N)=O)C(=O)N[C@H](C=O)CC(C)C` [Fellutamide B], the IC50 is 9.4 nM.

`O=c1c(O)c(-c2ccc(O)cc2)oc2cc(O)cc(O)c12` [Kaempferol]: the half-maximal inhibitory concentration (IC50) was 10500 nM.

Take `CC(C)C[C@@H](C=O)NC(=O)[C@H](CC(C)C)NC(=O)[C@H](CC(C)C)NC(=O)OCc1ccccc1` [MG-132] (Cbz-Leu-Leu-Leu-aldehyde): the half-inhibitory concentration (IC50) was 40 nM.

`COc1cc(-c2[o+]c3cc(O)cc(O)c3cc2O)cc(OC)c1O` [Malvidin]: the IC50 was 32000 nM.

Turning to `O=c1c(O)c(-c2ccc(O)c(O)c2)oc2cc(O)cc(O)c12` [Quercetin], the IC50 was 3500 nM.

As for `C/C=C\NC(=O)[C@H]1NC(=O)[C@H](CC(N)=O)NC(=O)[C@@H](NC(=O)C(=O)[C@@H](C)CC)Cc2ccc(O)c(c2)-c2cccc3c2NC(=O)[C@@]3(O)[C@@H]1O` [TMC-95A], the IC50 was 5.4 nM.

The test system of the next data set is proteasome T-L activity. On the set-up: method as in PMID 16286248. As to conditions: literature value; cited from earlier work.
Consider `C[C@@]12OC(=O)[C@]1([C@@H](O)[C@@H]1C=CCCC1)NC(=O)[C@@H]2CCCl` [Marizomib, marizomib], for which the IC50 was 28 nM.

A further data set relates to proteasome C-L active site. Conditions: literature values; ref 34 (bortezomib), 35 (ixazomib); cited from earlier work.
For the compound `CC(C)C[C@H](NC(=O)CNC(=O)c1cc(Cl)ccc1Cl)B(O)O` [Ixazomib, ixazomib], the concentration for half-maximal inhibition (IC50) was 31 nM.
